# Test results reported in patent publication US20070037752A1, “Novel alanyl-amino peptidase inhibitors for functionally influencing different cells and treating immunological, inflammatory, neuronal, and other diseases” (priority 2003, published 2007).
# Residues, ends and D or L forms follow the SMILES beside them. *: point of attachment. Fmoc = O=C(OCC1c2ccccc2-c2ccccc21)*
# Target: alanyl aminopeptidases (APN) (Homo sapiens, UniProt P15144)
# Assay: Inhibition of alanyl aminopeptidase enzymatic activity, fluorogenic substrate (Ala)2-rhodamine 110
# Type: biochemical
# Details: Table 3, starred values = ID50; read-out: ID50 APN (values marked with *)
# Description: The inhibition characteristics measured are referred to as IC-50 values or ID50 values (the latter marked with “*”) for said enzyme. The enzymatic activity was determined by means of the fluorogenic substrate/product (Ala)2-rhodamine 110.
# Chain of alanyl aminopeptidases (APN) (P15144 whole entry, species assumed): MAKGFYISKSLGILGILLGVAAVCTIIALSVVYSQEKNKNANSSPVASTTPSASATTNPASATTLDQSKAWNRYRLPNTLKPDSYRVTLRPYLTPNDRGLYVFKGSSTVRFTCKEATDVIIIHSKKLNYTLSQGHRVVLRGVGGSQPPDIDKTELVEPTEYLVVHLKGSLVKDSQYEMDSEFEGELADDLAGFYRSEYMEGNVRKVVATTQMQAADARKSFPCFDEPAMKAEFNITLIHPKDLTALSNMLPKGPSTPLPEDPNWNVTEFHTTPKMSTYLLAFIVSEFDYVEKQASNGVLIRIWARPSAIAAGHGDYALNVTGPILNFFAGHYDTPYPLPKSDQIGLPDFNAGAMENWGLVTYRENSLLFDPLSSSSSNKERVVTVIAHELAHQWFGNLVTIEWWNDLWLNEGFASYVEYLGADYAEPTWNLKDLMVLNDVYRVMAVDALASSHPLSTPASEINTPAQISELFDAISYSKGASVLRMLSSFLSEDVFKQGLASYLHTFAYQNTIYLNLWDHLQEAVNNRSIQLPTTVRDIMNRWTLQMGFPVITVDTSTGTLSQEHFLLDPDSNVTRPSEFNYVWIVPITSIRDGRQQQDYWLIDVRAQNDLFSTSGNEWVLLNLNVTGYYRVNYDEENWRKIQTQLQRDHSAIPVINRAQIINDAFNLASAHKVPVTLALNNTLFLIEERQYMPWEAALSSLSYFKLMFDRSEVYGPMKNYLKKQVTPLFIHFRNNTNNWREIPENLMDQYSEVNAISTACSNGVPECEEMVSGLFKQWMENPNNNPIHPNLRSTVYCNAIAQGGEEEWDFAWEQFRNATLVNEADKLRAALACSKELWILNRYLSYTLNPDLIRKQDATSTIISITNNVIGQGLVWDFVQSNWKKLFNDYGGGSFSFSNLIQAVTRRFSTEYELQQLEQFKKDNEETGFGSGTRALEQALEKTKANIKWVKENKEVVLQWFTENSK
row,IC50 [µM],SMILES
1,23.7,O=C1C(Cc2ccc(O)cc2)NC(=S)N1Cc1ccccc1 (centres unmarked) [A3.145]

# Same assay, conditions: Table 3, unstarred values; read-out: IC50APN
row,IC50 [µM],SMILES
1,18.2,Cc1cc(=O)[nH]c(N/N=C/c2ccco2)n1 [A3.088]
2,18.2,CC(=O)c1cccc(-c2ccc(/C=C3/C(=O)N(CCCO)C(=O)C(C#N)=C3C)o2)c1 [A3.089]
3,18.4,Cc1ccc(/C=N/NC(=O)c2ccccc2OCc2ccccc2)o1 [A3.090]
4,18.7,NNC(=O)Cn1c2ccccc2n2cc(-c3ccccc3)cc12 [A3.091]
5,18.7,O=C(Nc1ccccc1C(=O)N/N=C/c1ccco1)c1ccc(Cl)cc1Cl [A3.092]
6,18.9,Cc1ccc(/C=N/NC(=O)c2cccc(NC(=O)c3ccccc3C)c2)o1 [A3.093]
7,19,O=C(N/C(=C\c1ccco1)C(=O)N1CCCC(CO)C1)c1ccccc1 (centres unmarked) [A3.094]
8,9.5,Cc1cc(I)ccc1CC(=O)CCC(=O)N/N=C/c1ccco1 [A3.095]
9,19.2,Cc1ccccc1S(=O)(=O)Nc1cccc(C(=O)N/N=C/c2ccco2)c1 [A3.097]
10,19.2,CN1C/C(=C/c2ccco2)C(=O)/C(=C/c2ccco2)C1 [A3.098]
11,19.5,CCCOc1ccccc1-c1cc(C(=O)N/N=C/c2ccco2)[nH]n1 [A3.100]
12,19.8,O=C(N/N=C/c1cc(Br)cc(Br)c1OC(=O)c1ccccc1)/C(=C/c1ccc2c(c1)OCO2)NC(=O)c1ccccc1 [A3.101]
13,19.9,COc1ccc(/C(C)=N/NC(=O)CNC(=O)/C=C\c2ccco2)cc1OC [A3.102]
14,19.9,CC1CCCCN1S(=O)(=O)c1ccc(NC(=O)/C=C/c2ccco2)cc1 (centres unmarked) [A3.103]
15,20,CN(C)c1ccc(C2C3C(=O)N(c4ccccc4)C(=O)C3ON2c2ccc(Cl)cc2)cc1 (centres unmarked) [A3.104]
16,20,CCCOc1[nH]c(/N=C/c2ccccc2)c(C#N)c1C#N [A3.105]
17,20.2,Cc1cccc(C(=O)Nc2ccc(C(=O)N/N=C/c3ccc(C)o3)cc2)c1 [A3.106]
18,20.3,Cc1cc(C)n(-c2nnc(N)nn2)n1 [A3.107]
19,20.5,COc1cc(Br)ccc1OCC(=O)N/N=C/c1cc(Br)c(O)c(O)c1Br [A3.109]
20,20.6,O=C(N/N=C/c1ccco1)c1cccc(NC(=O)c2ccccc2Cl)c1 [A3.110]
21,20.8,COc1ccc(-c2nc(C)sc2CC(=O)O)cc1 [A3.111]
22,20.8,CCCN1C(=O)C(C#N)=C(C)/C(=C\c2ccc(-c3cccc(Cl)c3C)o2)C1=O [A3.112]
23,20.9,O=C(N/N=C/c1ccco1)c1cc(-c2ccco2)n[nH]1 [A3.113]
24,20.9,COc1ccc(C[C@@H](N)C(=O)N[C@@H]2[C@H](O)[C@H](n3cnc4c(N(C)C)ncnc43)O[C@@H]2CO)cc1 [A3.114]

row,IC50 [µM],SMILES
1,21.1,O=C(N/C(=C\c1ccco1)C(=O)N1CCC(O)CC1)c1ccccc1 [A3.115]
2,21.2,O=C(O)c1ccc(-n2c(/C=C/c3ccco3)nc3ccccc3c2=O)cc1 [A3.116]
3,21.2,COC(=O)c1cc(NC(=O)Cc2cccs2)cc(C(=O)OC)c1 [A3.117]
4,21.3,O=C1C(Cc2ccc(O)cc2)NC(=S)N1C1CCCCC1 (centres unmarked) [A3.118]
5,21.4,CC1=C(C#N)C(O)=NC(=O)/C1=C/c1ccc(-c2ccc(Cl)c(C(=O)OC(C)C)c2)o1 [A3.120]
6,21.6,Cc1cccc(C)c1Nc1c(-c2ccccc2NC(=O)Nc2cccc(Cl)c2)nc2c(C(=O)NCC(C)C)cccn12 [A3.121]
7,21.6,O=C(Nc1ccc(N=Nc2ccccc2)cc1)c1ccc(S(=O)(=O)N2CCCC2)cc1 [A3.122]
8,21.8,CCOc1ccc(S(=O)(=O)N2CCCCC2)cc1-c1nc2c(C(C)(C)C)nn(C)c2c(=O)[nH]1 [A3.124]
9,21.8,COc1ccc(C(=O)N/N=C/c2cc(Br)c(C)o2)cc1 [A3.125]
10,22.2,Cc1ccc(/C=N/NC(=O)COc2ccccc2C)o1 [A3.128]
11,22.3,CCOC(=O)c1c(C)oc2c1c1c(c3ccccc32)OCN(C2CCS(=O)(=O)C2)C1 (centres unmarked) [A3.129]
12,22.4,O=C(N/N=C/c1ccco1)c1ccc(=O)[nH]n1 [A3.130]
13,22.4,O=C(N/N=C/c1ccco1)c1cccc(NC(=O)c2cccc(Br)c2)c1 [A3.131]
14,22.5,CC(C)CC(NC(=O)C(CCC(N)=O)NC(=O)CNC(=O)C(NC(=O)OCC1c2ccccc2-c2ccccc21)C(C)C)C(=O)O (centres unmarked) [A3.132] (Fmoc-VGQL-OH; configuration not given here)
15,25,Cn1nc(-c2cccs2)nc2c(=O)n(C)c(=O)nc1-2 [A3.133]
16,22.6,COc1ccc(C(=O)N/N=C/c2ccco2)cc1 [A3.134]
17,22.8,CCN(CC)c1ccc(/C=N/NC(=O)CNC(=O)/C=C/c2ccco2)cc1 [A3.135]
18,22.8,Cc1ccc(/C=N/NC(=O)c2ccc(NC(=O)c3ccccc3C)cc2)o1 [A3.136]
19,23,CN(C)CCCN1CCN(c2nc(N(C)CC(=O)O)c3ncn(Cc4ccc(C(F)(F)F)cc4)c3n2)CC1 [A3.137]
20,23,CC1=NNC(=O)C1CCC(=O)N/N=C\C=C\c1ccco1 (centres unmarked) [A3.138]
21,23.1,CCOC(=O)C1=C2SCC(=O)N2C(N)=C(C#N)C1 [A3.139]
22,23.4,Cc1cc(C)cc(OCC(=O)N/N=C/c2ccco2)c1 [A3.140]
23,23.4,COc1ccc(CCCC(=O)N/N=C/c2ccco2)cc1 [A3.141]
24,23.4,Cc1ccc(/C=N/NC(=O)c2ccc(O)cc2)o1 [A3.142]

row,IC50 [µM],SMILES
1,23.6,O=C(N/N=C/c1cc(Br)c(O)c(Br)c1O)/C(=C\c1ccc2c(c1)OCO2)NC(=O)c1ccccc1 [A3.143]
2,23.7,O=C(O)c1ccc2c(c1)C(=O)/C(=C\c1ccco1)C2=O [A3.144]
3,23.8,CCCOC(=O)c1cc(-c2ccc(/C=C3\C(=O)N(CCCO)C(=O)C(C#N)=C3C)o2)ccc1Cl [A3.146]
4,24.4,O=C1/C(=C/C=C/c2ccco2)CCC/C1=C\C=C\c1ccco1 [A3.147]
5,24.5,O=C(N/N=C\c1ccco1)c1ccc(Br)cc1 [A3.148]
6,24.8,Cc1ccc(/C=C/C(=O)Nc2ccc(S(=O)(=O)N3CCCC3)cc2)o1 [A3.149]
7,24.9,Cc1ccc(C)n1-c1cccc(C(=O)N/N=C/c2cc(Br)c(O)c(Br)c2)c1 [A3.150]
8,26.1,O=C1C(Cc2ccccc2)NC(=S)N1c1ccccc1 (centres unmarked) [A3.151]
9,25.1,COc1cc(/C=N/NC(=O)/C(=C/c2cccs2)NC(=O)c2ccccc2)cc([N+](=O)[O-])c1O [A3.152]
10,25.1,CCc1ccc(OCC(=O)N/N=C\c2ccco2)c([N+](=O)[O-])c1 [A3.153]
11,25.5,O=C(N/C(=C\c1ccco1)C(=O)N1CCOCC1)c1ccccc1Cl [A3.154]
12,25.8,CCOc1ccc(Br)cc1C(=O)N/N=C/c1ccco1 [A3.155]
13,25.9,O=C(N/N=C/c1ccco1)c1cccc(NC(=O)c2ccc(F)cc2)c1 [A3.156]
14,26.1,Cn1c(=O)[nH]c2nnc(-c3cccs3)nc2c1=O [A3.157]
15,26.3,O=C(CCCOc1ccc(Cl)cc1Cl)N/N=C/c1ccco1 [A3.158]
16,22.6,Cc1ccc(/C=N/NC2=NC(=O)CS2)o1 [A3.159]
17,26.4,Cc1ccc(/C=N/NC(=O)c2cc(O)cc(O)c2)o1 [A3.160]
18,26.4,O=C1CNC(c2cccc([N+](=O)[O-])c2)N1O (centres unmarked) [A3.161]
19,26.6,COc1ccc(C2(CNC(=O)/C=C/c3ccco3)CCCC2)cc1OC [A3.162]
20,26.7,Cc1ccc(/C=N/NC(=O)c2nnn(-c3nonc3N)c2CN2CCOCC2)o1 [A3.163]
21,26.7,CCCCCC(=O)N/N=C/c1ccco1 [A3.164]
22,27.3,CCCOc1ccc(/C=C(\NC(=O)c2ccccc2)C(=O)N/N=C/c2ccco2)cc1 [A3.165]
23,27.4,Cc1nn(-c2ccccc2)c(C)c1-c1cc(C(=O)N/N=C/c2ccco2)[nH]n1 [A3.167]
24,27.5,CC(/C=N/NC(=O)c1ccco1)=C\c1ccco1 [A3.168]

row,IC50 [µM],SMILES
1,27.7,CC1SC(N/N=C/c2ccco2)=NC1=O (centres unmarked) [A3.169]
2,28,Cc1ccc(Cn2c(SCCC(=O)O)nc3c2c(=O)n(C)c(=O)n3C)cc1 [A3.170]
3,28,O=C(Cc1cccs1)N/N=C/C=C\c1ccco1 [A3.171]
4,28.1,COC(=O)c1ccccc1-c1ccc(/C=C2\C(=O)N(C)C(=O)C(C#N)=C2C)o1 [A3.172]
5,28.5,CC(/C=C/c1ccco1)=N\NC(=O)CNc1ccc2ccccc2c1 [A3.173]
6,28.6,C/C(=N\N=C1\SC(CC(=O)O)C(=O)N1c1ccccc1)c1ccco1 (centres unmarked) [A3.174]
7,28.6,CC1=C(C#N)C(=O)N(CC(C)O)C(=O)/C1=C/c1ccc(-c2cccc(Cl)c2C)o1 (centres unmarked) [A3.175]
8,28.7,C(=C\c1ccco1)/c1nc2ccccc2[nH]1 [A3.176]
9,28.7,COc1ccccc1-n1c(CCC(=O)O)ccc1-c1cccs1 [A3.177]
10,28.8,Cc1ccc(C(=O)N/C(=C\c2ccco2)C(=O)N2CCOCC2)cc1C [A3.178]
11,29.1,O=C(C1c2ccccc2Oc2ccccc21)n1cc(Cl)cn1 [A3.179]
12,29.3,C=CCN1C(=O)C(C#N)=C(C)/C(=C\c2ccc(-c3cc(C)c(C)cc3[N+](=O)[O-])o2)C1=O [A3.180]
13,29.4,COc1ccc(/C(C)=N/NC(=O)CNC(=O)/C=C\c2ccco2)cc1 [A3.181]
14,29.5,O=C(N/N=C/c1ccco1)c1cccc(NC(=O)c2ccccc2)c1 [A3.182]
15,29.7,CC(=O)Nc1ccc(C(=O)N/N=C/c2ccc(C)o2)cc1 [A3.183]
16,30,Cc1ccc(/C=N/NC(=O)c2cccc(I)c2)o1 [A3.184]
17,30.1,O=C(N/N=C\c1ccco1)c1cnccn1 [A3.185]
18,30.1,O=C(N/N=C/C=C\c1ccco1)c1ccoc1 [A3.186]
19,30.3,CC1=C(C#N)C(=O)N=C(O)/C1=C\c1ccc(-c2ccc(Cl)cc2Cl)o1 [A3.187]
20,30.5,NC(=O)C1CCN(C(=O)/C(=C/c2ccco2)NC(=O)c2ccccc2)CC1 [A3.188]
21,31.1,Cc1cccc(C)c1NC1C(c2ccccc2NC(=O)Nc2ccc(OC(F)(F)F)cc2)N=C2C(C(=O)NCC(C)C)=CC=CN21 (centres unmarked) [A3.190]

row,SMILES,IC50 [µM]
1,O=C(/C=C/c1ccco1)c1ccccc1 [A3.166],27.3
